Experiments:
Assay type in all cases: cell-based, human
[1] = system: cleaved caspase 3 (c-Casp3); assay: Western blot of stem cells exposed to IAP antagonists and ponatinib (cleaved caspase 3); conditions: BE stem cells exposed to IAP antagonist and ponatinib; six-hour exposure; FIG. 42c
Source text: Based on the properties of diverse IAP antagonists in combination with ponatinib towards BE stem cells, synthetic chemistry was employed to expand the repertoire of IAP antagonists available for these studies. A squaramide linker strategy was chosen for generating bivalent IAP antagonists based on its planar structure and separation of the headgroups that contain the peptide […] domains that interact with cIAP1, cIAP2, and XIAPs, and screened them in dose-response assays against BE stem cells in the presence and absence of ponatinib (FIG. 42d).

[2] = system: RIPK1 S320/S166 phosphorylation, cIAP1, cIAP2, cleaved Caspase 3 in LGD stem cells; assay: Western blot of LGD stem cells (RIPK1 phosphorylation, cIAP1/cIAP2, cleaved Caspase 3); conditions: ponatinib 300 nM, 7532N 10 nM, 16 hr per FIG. 42j
BE stem cells = assay: Survival of Barrett's esophagus (BE) stem cells, high-throughput screen and dose-response
Source text: The present example describes methods used for testing the efficacy of compounds described herein. The selective growth of stem cells of cancers, of their precursor lesions, and of normal and chronically diseased epithelial tissues is described in the references below. In brief, biopsied tissues are reduced to single cell suspensions and plated onto lawns of irradiated 3T3-J2 feeder cells in specialized StemEcho media and libraries of colonies are evident in 7-10 days. Single cell-derived clones are generated by single cell FACS sorting to 384 well plates and wells with individual colonies are expanded, analyzed by molecular genetics, and grown as discrete clones.
After 2-5 days, the cells are fixed using paraformaldehyde and the human cells are labelled with human-specific antibodies followed by fluorochrome-labelled secondary antibodies. Human cell numbers are quantified via high-throughput imaging technology (CellInsight CX7 LED, Thermo), and data analyzed by Excel.
To learn more about the relative efficacy of these IAP antagonists in a synthetic lethal combination with ponatinib, we compared their effects in dose-response assays in vitro against BE stem cells. […]

With `CN[C@@H](C)C(=O)N[C@H](C(=O)N1CCC[C@H]1C(=O)N[C@H]1c2ccccc2C[C@H]1OCC#CC#CCO[C@@H]1Cc2ccccc2[C@@H]1NC(=O)[C@@H]1CCCN1C(=O)[C@@H](NC(=O)[C@H](C)NC)C1CCCCC1)C1CCCCC1` [AZD5582] the “Induction of cleaved caspase 3 (c-Casp3), western blot” value [1] was “induced a cleaved caspase 3”.
With `CN[C@@H](C)C(=O)N[C@H](C(=O)N1CCC[C@H]1C(=O)N[C@H]1c2ccccc2C[C@H]1OCCOCCNc1c(NCCOCCO[C@@H]2Cc3ccccc3[C@@H]2NC(=O)[C@@H]2CCCN2C(=O)[C@@H](NC(=O)[C@H](C)NC)C2CCCCC2)c(=O)c1=O)C1CCCCC1` [Compound I-1] the “RIPK1 phosphorylation, cIAP1/cIAP2 and apoptosis in LGD stem cells, western blot” value [2] was “degradation of cIAP1 and cIAP2 without inducing cleaved Caspase 3”.
With `CN[C@@H](C)C(=O)N[C@H]1CCCC[C@H]2CC[C@@H](C(=O)N[C@@H](c3ccccc3)c3cn(CCCCc4ccc(CCCCn5cc([C@@H](NC(=O)[C@@H]6CC[C@@H]7CCCC[C@H](NC(=O)[C@H](C)NC)C(=O)N76)c6ccccc6)nn5)cc4)nn3)N2C1=O` [SM-164] the “Induction of cleaved caspase 3 (c-Casp3), western blot” value [1] was “induced a cleaved caspase 3”.
In the case of `Cc1cn(-c2cc(NC(=O)c3ccc(C)c(Nc4nccc(-c5cccnc5)n4)c3)cc(C(F)(F)F)c2)cn1` [nilotinib], the “Identification in high-throughput screens” value (BE stem cells; screens against BE and ESO stem cells) is reported as “not identified in our screens”.
For `Cc1ccc(C(=O)Nc2ccc(CN3CCN(C)CC3)c(C(F)(F)F)c2)cc1C#Cc1cnc2cccnn12` [ponatinib], the “Inhibition of BE stem cells” value (BE stem cells; eight patient-derived BE stem cells, FIG. 40d) was 20%.

Reference: patent US20260060957A1, “COMPOUNDS AND COMPOSITIONS USEFUL FOR TREATMENT OF PROLIFERATIVE DISEASE OR DISORDER” (University of Houston System, priority 2023, published 2026)
